According to patent publication US12077503B2, “Substituted cyclic amides and their use as herbicides” (FMC CORPORATION, priority 2015, dated 2024):

Key:
Assay type in all cases: in vivo
[1] = system: barnyardgrass (Echinochloa crus-galli); assay: Test A postemergence; conditions: Echinochloa crus-galli, post-emergence, 240 h, Postemergence
In short: (§1)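 In a loam soil and sand blend, planted seeds got a preemergence directed soil spray, and young plants at the one- to two-leaf stage, 2–10 cm high, got a postemergence application; ~10 d greenhouse hold; injury rated visually, 0 = none, 100 = complete control.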

Kochia (Kochia scoparia) [2] = assay: Test A postemergence; conditions: Bassia scoparia, post-emergence, 240 h, Postemergence, read-out: Kochia plant response rating (0 to 100 scale)
In short: as §1

[3] = system: pigweed (Amaranthus retroflexus); assay: Test A postemergence; conditions: Amaranthus retroflexus, post-emergence, 240 h, Postemergence, read-out: Pigweed plant response rating (0 to 100 scale)
In short: as §1

[4] = system: wheat (Triticum aestivum); assay: Test A postemergence; conditions: Triticum aestivum, post-emergence, 240 h, Postemergence, read-out: Wheat plant response rating (0 to 100 scale)
In short: as §1

[5] = system: giant foxtail (Setaria faberii); assay: Test A postemergence; conditions: Setaria faberi, post-emergence, 240 h, Postemergence, read-out: Foxtail, Giant plant response rating (0 to 100 scale)
In short: as §1

[6] = system: blackgrass (Alopecurus myosuroides); assay: Test A postemergence; conditions: Alopecurus myosuroides, post-emergence, 240 h, Postemergence, read-out: Blackgrass plant response rating (0 to 100 scale)
In short: as §1

corn (Zea mays) = assay: Test A postemergence; conditions: Zea mays, post-emergence, 240 h, Postemergence, read-out: Corn plant response rating (0 to 100 scale)
In short: as §1

[7] = system: ryegrass, Italian (Italian ryegrass, Lolium multiflorum); assay: Test A postemergence; conditions: Lolium multiflorum, post-emergence, 240 h, Postemergence, read-out: Ryegrass, Italian plant response rating (0 to 100 scale)
In short: as §1

[8] = system: Galium (catchweed bedstraw, Galium aparine); assay: Test A postemergence; conditions: Galium, post-emergence, 240 h, Postemergence, read-out: Galium plant response rating (0 to 100 scale)
In short: as §1

[9] = system: ragweed (common ragweed, Ambrosia elatior); assay: Test A postemergence; conditions: Ambrosia artemisiifolia, post-emergence, 240 h, Postemergence, read-out: Ragweed plant response rating (0 to 100 scale)
In short: as §1

[10] = system: barnyardgrass (Echinochloa crus-galli); assay: Test A preemergence; conditions: Echinochloa crus-galli, pre-emergence, 240 h, Preemergence
In short: as §1

Kochia (Kochia scoparia) [11] = assay: Test A preemergence; conditions: Bassia scoparia, pre-emergence, 240 h, Preemergence
In short: as §1

[12] = system: pigweed (Amaranthus retroflexus); assay: Test A preemergence; conditions: Amaranthus retroflexus, pre-emergence, 240 h, Preemergence
[13] = system: ryegrass, Italian (Italian ryegrass, Lolium multiflorum); assay: Test A preemergence; conditions: Lolium multiflorum, pre-emergence, 240 h, Preemergence
In short: as §1

[14] = system: ragweed (common ragweed, Ambrosia elatior); assay: Test A preemergence; conditions: Ambrosia artemisiifolia, pre-emergence, 240 h, Preemergence
In short: as §1

[15] = 125 g ai/ha, visual rating about 10 d after treatment
[16] = 31 g ai/ha, 0 is no effect, 100 is complete control

Compound: CN1C[C@H](c2csc3c2CCC(F)(F)C3)[C@@H](C(=O)Nc2ccccc2S(C)(=O)=O)C1=O (racemic) [Compound 1367]
- pest or weed control at 125 g/ha ([1]; 125 g ai/ha, visual rating about 10 d after treatment, read-out: Barnyardgrass plant response rating (0 to 100 scale, 0 no effect, 100 complete control)): 30%
- pest or weed control at 31 g/ha ([1]; 31 g ai/ha, 0 is no effect, 100 is complete control, read-out: Barnyardgrass plant response rating (0 to 100 scale)): 0%
- pest or weed control at 125 g/ha (Kochia (Kochia scoparia) [2]; [15]): 0%
- pest or weed control at 31 g/ha (Kochia (Kochia scoparia) [2]; [16]): 0%
- pest or weed control at 125 g/ha [3, 15]: 20%
- pest or weed control at 31 g/ha [3, 16]: 0%
- plant injury at 125 g/ha [4, 15]: 0%
- plant injury at 31 g/ha [4, 16]: 0%
- pest or weed control at 125 g/ha [5, 15]: 30%
- pest or weed control at 31 g/ha [5, 16]: 0%
- pest or weed control at 125 g/ha [6, 15]: 0%
- pest or weed control at 31 g/ha [6, 16]: 0%
- plant injury at 125 g/ha (corn (Zea mays); [15]): 0%
- plant injury at 31 g/ha (corn (Zea mays); [16]): 0%
- pest or weed control at 125 g/ha [7, 15]: 0%
- pest or weed control at 31 g/ha [7, 16]: 0%
- pest or weed control at 125 g/ha [8, 15]: 0%
- pest or weed control at 31 g/ha [8, 16]: 0%
- pest or weed control at 125 g/ha [9, 15]: 0%
- pest or weed control at 31 g/ha [9, 16]: 0%
- pest or weed control at 31 g/ha ([10]; 31 g ai/ha, 0 to 100 scale where 0 is no effect and 100 is complete control, read-out: Barnyardgrass plant response rating): 0%
- pest or weed control at 125 g/ha ([10]; 125 g ai/ha, 0 to 100 scale (0 no effect, 100 complete control), read-out: Plant response rating, Barnyardgrass): 80%
- pest or weed control at 31 g/ha (Kochia (Kochia scoparia) [11]; 31 g ai/ha, 0 to 100 scale where 0 is no effect and 100 is complete control, read-out: Kochia plant response rating): 0%
- pest or weed control at 125 g/ha (Kochia (Kochia scoparia) [11]; 125 g ai/ha, 0 to 100 scale (0 no effect, 100 complete control), read-out: Plant response rating, Kochia): 0%
- pest or weed control at 31 g/ha ([12]; 31 g ai/ha, 0 to 100 scale where 0 is no effect and 100 is complete control, read-out: Pigweed plant response rating): 0%
- pest or weed control at 125 g/ha ([12]; 125 g ai/ha, 0 to 100 scale (0 no effect, 100 complete control), read-out: Plant response rating, Pigweed): 0%
- pest or weed control at 31 g/ha ([13]; 31 g ai/ha, 0 to 100 scale where 0 is no effect and 100 is complete control, read-out: Ryegrass, Italian plant response rating): 0%
- pest or weed control at 125 g/ha ([13]; 125 g ai/ha, 0 to 100 scale (0 no effect, 100 complete control), read-out: Plant response rating, Ryegrass, Italian): 0%
- pest or weed control at 31 g/ha ([14]; 31 g ai/ha, 0 to 100 scale where 0 is no effect and 100 is complete control, read-out: Ragweed plant response rating): 0%
- pest or weed control at 125 g/ha ([14]; 125 g ai/ha, 0 to 100 scale (0 no effect, 100 complete control), read-out: Plant response rating, Ragweed): 0%
